Here are results for five compounds from patent US10174097B2, “Specific A-beta species-binding peptides for the therapy and/or diagnosis of Alzheimer's dementia” (Forschungszentrum Juelich GmbH, priority 2015, dated 2019).

One data set has as its target T1, Abeta monomers (Homo sapiens, UniProt P05067).
T1 construct: incubate with FITC Abeta monomers, oligomers, fibrils and FITC for 1 hour at room temperature
The experiment in a line: Peptide microarray, binding of FITC Abeta monomers to immobilized peptides. The conditions noted are these: for Binding specificity monomer to fibrils: quotient binding signal to monomers / binding signal to fibrils; for Binding specificity monomer to oligomer: quotient binding signal to monomers / binding signal to oligomers. How it is done:
(§1) The procedure for identifying peptides that bind specifically to amyloid beta monomer or specifically to amyloid beta oligomers and for determining the binding specificity of peptides within the meaning of the present invention can thus be as follows. Peptide microarrays comprising various peptides immobilized on a surface, such as derivatives of D3, are each incubated with different species of Abeta (such as monomers, oligomers and fibrils) labeled with a fluorescent dye. A peptide microarray is incubated with only the fluorescent dye to serve as the control. So as to ensure the reproducibility of the results, the incubation of the peptide microarrays can be carried out at least three times for each species. The binding of the fluorescence-labeled Abeta to the immobilized peptides is detected by way of the fluorescent dye. The more Abeta binds to the peptide, the higher the fluorescence signal is. The measured fluorescence signals of the reproductions are standardized, and the […]. This avoids binding of the fluorescence-labeled Abeta via the dye. The binding signals of an Abeta species to a peptide are then averaged. So as to determine the binding specificity, the quotient of the species to which the peptide is to specifically bind and another species is found.
(§2) Pretreatment of the peptide microarray slides: • briefly dip 3× in ethanol (96%) and then wash with H2O (30 minutes) • briefly dry by way of centrifuging
(§3) Preparation of monomers and oligomers: • size exclusion chromatography according to Johansson et al. 2006 (Johansson, A.-S. et al. Physiochemical characterization of the Alzheimer's disease-related peptides Aβ1-42Arctic and Aβ1-42 wt. FEBS Journal 273, 2618-2630 (2006)). • oligomers were fractionated at 8-9 ml, monomers at 16-17 ml.
(§4) Carrying out the peptide microarray: • incubate with FITC Abeta monomers, oligomers, fibrils and FITC for 1 hour at room temperature • wash: TBS-T briefly 3× (only TBS-T buffer is replaced), 3×10 minutes in a flacon, 3×H2O, 3×10 minutes • dry by way of centrifugation • The binding of the fluorescence-labeled Abeta to the immobilized peptides is detected by way of the fluorescent dye using the microarray reader FLA800 from Fuji Film. The more Abeta binds to the peptide, the higher is the fluorescence signal. • carrier set mode: slides • resolution: 10 μm • scan mode: high sensitivity (slow): scan pixel at 200 mm/s • laser: 473 nm • filter: 530 DF 20 • photomultiplier tube (PMT) HV (%): 100 • images were stored as .tif files
(§5) The software, AIDA Metrix, from Raytest was used to evaluate the fluorescence signals:
(§6) To ensure the reproducibility of the results, the incubation of the peptide microarrays is carried out at least three times for each species.
(§7) The measured fluorescence signals of the reproductions are standardized using a median-based standardization, and the control was subtracted from the signal. This avoided the binding of the fluorescence-labeled Abeta via the dye.
(§8) The binding signals of an Abeta species to a peptide were averaged.
So as to determine the binding specificity, the quotient of the species to which the peptide is to specifically bind and another species is created.
Example: binding specificity of peptide X to Abeta monomers=binding signal of peptides X to monomers/binding signal of peptides X to oligomers.

Data set [1] deals with T2, Abeta oligomers (Homo sapiens, UniProt P05067). Put plainly: QIAD method, elimination of Abeta oligomers (density gradient centrifugation, RP-HPLC). It counts as biochemical. The conditions noted are these: for Elimination of Abeta oligomers: ratio of Abeta to peptide of 8:1, fractions 4-6, FIG. 2; for Elimination of Abeta oligomers compared to D3: ratio of Abeta to peptide of 8:1, FIG. 2. How it is done: Using the QIAD method for the quantitative characterization of amyloid peptides and/or proteins in a sample, it was possible to quantify the properties of the substances. Pre-incubated Abeta was co-incubated with the peptides. The different Abeta species were separated by way of density gradient centrifugation and quantified in the individual fractions by way of RP-HPLC Abeta. The elimination of the Abeta oligomers in fractions 4-6 was analyzed.
T2 sequence (P05067 672-713 limits assumed): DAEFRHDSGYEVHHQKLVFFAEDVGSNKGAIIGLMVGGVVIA

For data set [2], the target named is T3, Abeta fibrils (Homo sapiens, UniProt P05067).
T3 construct: Pre-incubated Abeta was co-incubated with the peptides
T3 sequence (P05067 672-713 limits assumed): as above
Put plainly: ThT assay, formation of ThT positive Abeta fibrils. It counts as biochemical. The conditions noted are these: for ThT fluorescence during the entire measuring time period: 48 hours, co-incubation with Abeta, FIG. 3.

The subject of data set [3] is SH-SY5Y cells. Put plainly: MTT assay on SH-SY5Y cells without Abeta co-incubation. It counts as cell-based. The conditions noted are these: FIG. 4a. The source says: (§9) No noteworthy toxicity of the peptides according to the invention in therapeutically relevant concentrations was established in the MTT assay on SH-SY5Y cells known to a person skilled in the art (FIG. 4). […] Based on current knowledge, Abeta oligomer is the toxic species.
(§10) The significances are based on the respective concentration with D3 (* p≤0.05; ** p≤0.01; *** p≤0.001; n. s. not significant).
A general note: Formazan colour is commonly taken as a measure of viable cells.

Data set [4] deals with SH-SY5Y cells. Put plainly: MTT assay on SH-SY5Y cells with Abeta co-incubation. It counts as cell-based. The conditions noted are these: for Reduction of the toxicity caused by Abeta: co-incubating Abeta with peptide in various concentrations, FIG. 4b; for Reduction of Abeta toxicity compared to D3: respective concentration with D3, FIG. 4b.
Excerpt: as §9, §10

For data set [5], the target named is T2, Abeta oligomers. Put plainly: Peptide microarray, binding of FITC Abeta oligomers to immobilized peptides. The conditions noted are these: 1 hour at room temperature, control subtracted, averaged. How it is done:
as §1, §2, §3, §4, §5, §6, §7, §8

Data set [6] concerns the target T3, Abeta fibrils. The experiment in a line: Peptide microarray, binding of FITC Abeta fibrils to immobilized peptides. The conditions noted are these: 1 hour at room temperature, control subtracted, averaged. How it is done:
as §1, §2
Preparation of fibrils: • incubate Abeta over 3 days, centrifuge, discard supernatant and resuspend in buffer (repeat 3 times)
as §4, §5, §6, §7, §8

For the next data set, the system named is transgenic AD mice. The conditions noted are these: oral administration with drinking water; cited from earlier work.

Entries after “also recorded” stand apart in the source; their conditions may differ. Where a SMILES comes first, the peptide text is derived from it. [ ]: non-standard residue; d: D form. dPhe(4-F) = N[C@H](Cc1ccc(F)cc1)C(=O)O

T1 sequence (P05067 672-713 limits assumed): as above

`CC[C@@H](C)[C@@H](NC(=O)[C@@H](CCCNC(=N)N)NC(=O)[C@@H](CCCCN)NC(=O)[C@H](N)CCCNC(=N)N)C(=O)N[C@H](CCCNC(=N)N)C(=O)N[C@H](CC(C)C)C(=O)N[C@@H](C(=O)N[C@H](Cc1ccc(O)cc1)C(=O)N[C@H](Cc1c[nH]cn1)C(=O)N[C@H](Cc1c[nH]c2ccccc12)C(=O)N[C@H](CC(N)=O)C(=O)N[C@H](CCCNC(=N)N)C(N)=O)C(C)C` [ANK4, rkrirlvyhwnr] (H-[dR][dK][dR][dI][dR][dL][dV][dY][dH][dW][dN][dR]-NH2): at Abeta monomers, the “Binding specificity monomer to fibrils” value turned out to be 4.3 and the “Binding specificity monomer to oligomer” value came to 3.3. For the same compound, the “Elimination of Abeta oligomers” value at Abeta oligomers [1] worked out at 59±16%. Moreover, the “ThT fluorescence during the entire measuring time period” value at Abeta fibrils [2] was “slight increase”. Further, the “Toxic effect of the peptide alone on the cells” value (“Toxic effect” below) with SH-SY5Y cells [3] was “do not have a toxic effect”. In the data set on SH-SY5Y cells [4], the “Reduction of the toxicity caused by Abeta” value (“Reduction … by Abeta” for short) is given as “reduced; also recorded: reduction in the Abeta toxicity was achieved” and the “Reduction of Abeta toxicity compared to D3” value was “more efficient”.

Turning to `CC(C)C[C@@H](NC(=O)[C@@H](CCCNC(=N)N)NC(=O)[C@H](NC(=O)[C@@H](CCCNC(=N)N)NC(=O)[C@@H](CCCCN)NC(=O)[C@H](N)CCCNC(=N)N)C(C)C)C(=O)N[C@@H](C(=O)N[C@H](Cc1ccc(O)cc1)C(=O)N[C@H](Cc1c[nH]cn1)C(=O)N[C@H](CCCCN)C(=O)N[C@H](CCCCN)C(=O)N[C@H](CCCNC(=N)N)C(N)=O)C(C)C` [ANK5, rkrvrlvyhkkr] (H-[dR][dK][dR][dV][dR][dL][dV][dY][dH][dK][dK][dR]-NH2), on Abeta monomers, the “Binding specificity monomer to fibrils” value is 2.2 and the “Binding specificity monomer to oligomer” value is on record as 5.9. Further, at Abeta oligomers [1], the “Elimination of Abeta oligomers compared to D3” value (“Elimination … compared to D3” for short) is listed as “significantly more efficiently than D3” and the “Elimination of Abeta oligomers” value is 72±2%. Besides, on Abeta fibrils [2] (after 48 hours), the ThT fluorescence is listed as 1029 rfu and the “ThT fluorescence as % of the ThT fluorescence of Abeta control” value came to 53%. In addition, the “Toxic effect” value in the data set on SH-SY5Y cells [3] is given as “do not have a toxic effect”. In addition, the “Reduction … by Abeta” value in the data set with SH-SY5Y cells [4] is reported as “reduced; also recorded: reduction in the Abeta toxicity was achieved”.

Turning to `CC[C@@H](C)[C@@H](NC(=O)[C@@H](CCCNC(=N)N)NC(=O)[C@@H](CCCCN)NC(=O)[C@H](N)CCCNC(=N)N)C(=O)N[C@H](CCCNC(=N)N)C(=O)N[C@H](CC(C)C)C(=O)N[C@@H](C(=O)N[C@@H](C(=O)N[C@H](CCCCN)C(=O)N[C@H](CCCCN)C(=O)N[C@H](CCCCN)C(=O)N[C@H](CCCNC(=N)N)C(N)=O)[C@H](C)O)C(C)C` [ANK6, rkrirlvtkkkr] (H-[dR][dK][dR][dI][dR][dL][dV][dT][dK][dK][dK][dR]-NH2), at Abeta monomers, the “Binding specificity monomer to fibrils” value worked out at 1.9 and the “Binding specificity monomer to oligomer” value is on record as 4.1. At Abeta oligomers [1], the “Elimination … compared to D3” value is “significantly more efficiently than D3” and the “Elimination of Abeta oligomers” value is listed as 81±3%. Also, the “ThT fluorescence during the entire measuring time period” value at Abeta fibrils [2] is on record as “slight increase”. For the same compound, in the data set with SH-SY5Y cells [3], the “Toxic effect” value was “do not have a toxic effect”. Further, in the data set on SH-SY5Y cells [4], the “Reduction … by Abeta” value was “reduced; also recorded: reduction in the Abeta toxicity was achieved” and the “Reduction of Abeta toxicity compared to D3” value was “more efficient”.

As for `CC[C@@H](C)[C@@H](NC(=O)[C@@H](Cc1c[nH]cn1)NC(=O)[C@H](NC(=O)[C@@H](Cc1ccc(F)cc1)NC(=O)[C@@H](CC(C)C)NC(=O)[C@@H](CCCNC(=N)N)NC(=O)[C@H](NC(=O)[C@@H](CCCNC(=N)N)NC(=O)[C@@H](CCCCN)NC(=O)[C@H](N)CCCNC(=N)N)C(C)C)[C@H](C)O)C(=O)N[C@H](CCCCN)C(=O)N[C@H](CCCNC(=N)N)C(N)=O` [ANK7, rkrvrl02thikr] (H-[dR][dK][dR][dV][dR][dL][dPhe(4-F)][dT][dH][dI][dK][dR]-NH2), on Abeta monomers, the “Binding specificity monomer to fibrils” value is recorded as 6.8 and the “Binding specificity monomer to oligomer” value was determined as 6.4. Further, at Abeta oligomers [1], the “Elimination … compared to D3” value is “significantly more efficiently than D3” and the “Elimination of Abeta oligomers” value was determined as 73±1%. The “ThT fluorescence during the entire measuring time period” value on Abeta fibrils [2] is “slight increase”. The “Toxic effect” value with SH-SY5Y cells [3] is given as “do not have a toxic effect”. In addition, in the data set on SH-SY5Y cells [4], the “Reduction … by Abeta” value is reported as “reduced; also recorded: reduction in the Abeta toxicity was achieved”.

For the compound rprtrlhthrnr [D3, reference compound], the “Binding specificity with respect to Abeta monomer” value on Abeta monomers (FIG. 1b, quotient of binding signals) is “less than 1”. Besides, the “Binding signal to Abeta monomers” value at Abeta monomers (peptide microarray, FITC Abeta, 1 hour at room temperature, control subtracted, averaged) was found to be 0.5 rfu. In addition, on Abeta monomers, the “Binding specificity monomer to fibrils” value is given as 0.6 and the “Binding specificity monomer to oligomer” value worked out at 0.8. In addition, the “Binding signal to Abeta oligomers” value at Abeta oligomers [5] was found to be 0.6 rfu. Moreover, at Abeta fibrils [6], the “Binding signal to Abeta fibrils” value is listed as 0.8 rfu. Also, the “Elimination of Abeta oligomers” value on Abeta oligomers [1] was found to be 50±10%. Moreover, in the data set on transgenic AD mice, the “Cognitive abilities of treated transgenic AD mice” value is “significantly improved cognitive abilities” and the “Plaque in treated transgenic AD mice” value is “considerably less plaque”.
